Where two headings read alike, the source gives them in different places.
Columns and labels:
[1] = molecular target: T1, full-length NS3/4A protease (genotype 1b) (Hepatitis C virus genotype 1b, UniProt Q9WMX2); test: biochemical; details: purified full-length NS3/4A, genotype 1b wild-type
T1 construct: wild-type HCV NS3 (HCV polyprotein residues 1027–1657); His-tag (N); made in house
Method: All assays were done in duplicate in black 384-well plates (Matrix Technologies). […] 200 nL of 10 mM compound (50 µM final concentrations) were then added and incubated for 5 minutes. Enzyme reactions were initiated with 10 µL of substrate Ac-DE-Dap(QXL520)-EE-Abu-ψ-[COO]AS-C(5-FAMsp)-NH2 (Anaspec) (1 µM final concentration), incubated for 6 minutes, and quenched by 10 µL of 10% SDS as a stop solution. Fluorescence intensity was monitored with a POLARstar OPTIMA microplate reader (BMG LABTECH). Each plate contained a total of 32 positive and 32 negative controls.
(§1) A series of compound concentrations (0 to 200 µM final concentration at 2-fold serial dilution) in 100% DMSO were prepared in a 384-well plate. 20 µL of enzyme solution was distributed to wells, and 0.5 µL of varying concentration of compounds were added and incubated for 5 minutes. The enzyme reaction was initiated by adding 5 µL of the substrate, and its activity was continuously monitored for 6 minutes. The IC50 values were calculated by fitting with the Hill equation (1), with OriginPro 8.5 (OriginLab, Inc.) where y is percent inhibition, x is inhibitor concentration, n is the slope of the concentration–response curve (Hill slope), and Vmax is maximal inhibition from two to four independent assays. [drawing 1] (1)

full-length NS3/4A [2] = molecular target: T2, full-length NS3/4A (Hepatitis C virus genotype 1b, UniProt Q9WMX2); test: SPR binding assay (dissociation equilibrium constant KD)
T2 construct: wild-type HCV NS3 (HCV polyprotein residues 1027–1657); His-tag (N); made in house
Method: The full-length NS3/4A enzyme was prepared in a storage buffer (50 mM HEPES, pH 7.6, 500 mM NaCl, 1 mM DTT, 0.2% Triton X-100, and 20% glycerol) and immobilized on a CM5 sensor chip using standard amine-coupling at 25°C with running buffer HBS-P (10 mM HEPES, 150 mM NaCl, 0.05% surfactant P-20, pH 7.4) using a Biacore T100 instrument. Flow channels 1 and 3 were activated by 1-ethyl-3-(3-dimethylaminopropyl) carbodiimide hydrocholoride (EDC)/N-hydroxy succinimide (NHS) mixture, and the activated surface was blocked by ethanolamine (pH 8.5) as controls. The NS3/4A enzyme was diluted in 10 mM sodium acetate (pH 5.0), and immobilized to flow channel 4 after sensor surface activation with EDC/NHS with a 7 min injection followed by ethanolamine blocking on unoccupied surface area. NS3/4A immobilization level was ∼8,500 response units (RU). An unrelated reference protein (92 kDa) was also immobilized to flow channel 2 as another control to be compared with NS3/4A (74.6 kDa). Fifteen initial hit compounds were prepared as 10 mM DMSO stock solutions. Compound solutions with a series of increasing concentrations (0–200 µM at 1.5-fold dilution) were applied to all four channels at a 10 µL/min flow rate at 25°C. Sensorgrams were analyzed using Biaevaluation software 2.0.3, and response unit difference (ΔRU) values at each concentration were measured during the equilibration phase. Data were either single referenced with a blank (enthanolamine) or double referenced with both blank and reference protein RU values. SigmaPlot 11.0 was used to fit the data to a single rectangular hyperbolic curve to determine KD values. The hyperbola function, y = ymax·x/(KD+x), was used to plot response units and corresponding concentration, where y is the response, ymax is the maximum response, and x is the compound concentration.

[3] = molecular target: T3, full-length NS3/4A enzyme complex (Hepatitis C virus genotype 1b, UniProt Q9WMX2); test: Reversibility of inhibition by dilution; format: biochemical; details: dilution 25-fold and 50-fold
T3 construct: wild-type HCV NS3 (HCV polyprotein residues 1027–1657); His-tag (N); made in house
Method: The reversibility of hit compounds was determined by dilution. The full-length NS3/4A enzyme complex was prepared as 20-fold (200 nM) of the assay concentration and was incubated with screened compounds at 20-fold IC50 value or slightly higher concentration for 30 minutes at room temperature in the same assay condition as the primary screen in a final volume of 100 µL. The concentration of enzyme and testing compound was optimized to yield at least 95% inhibition before dilution. The NS3/4A enzyme with the same volume of DMSO in place of each compound was also prepared as a control. NS3/4A activity was measured in the same way as the IC50 measurements. Then enzyme-inhibitor solution was diluted 25-fold and 50-fold and incubated for 30 minutes before measuring the percent recovery of the enzyme activity. All reversibility assays were done in triplicate.

full-length NS3/4A [4] = molecular target: T2, full-length NS3/4A; test: Type (mechanism) of enzyme inhibition, kinetic analysis; format: biochemical; details: with respect to the substrate, best fit model
Method: Full-length NS3/4A activity was monitored in the same way as the primary screening with varying concentration of both inhibitor compounds and substrate (0–8 µM). The concentration of compounds varied from 0 to 20 µM at 1.5-fold dilution factor.

NS3 protease domain = molecular target: T4, NS3 protease domain (Hepatitis C virus genotype 1b, UniProt Q9WMX2); test: Fluorescence enzymatic assay with NS3 protease domain alone; format: biochemical
T4 construct: the full-length NS3/4A and the NS3/4A protease domain alone
Method: as §1

[5] = molecular target: T5, NS3/4A protease genotype 2a (Hepatitis C virus genotype 2a, UniProt Q99IB8); test: Inhibition assay with NS3/4A from genotype 2a; format: biochemical; details: IC50 Purified NS3/4A Sub-genotype 2a, genotype 2a
T5 construct: against the NS3/4A protease domains from three additional HCV genotypes (1a, 2a, and 4d); purchased Anaspec
Method: The inhibitory activity of the final hit compounds from HTS were tested against three other HCV genotypes (1a, 2a, and 4d), along with a control (genotype 1b) and five NS3 drug-resistant mutants. Eight full-length NS3 mutants (V36M, R155K, A156T, A156S, 156V, V36A, T54A, and R155T) were generated by mutagenesis and purified, and the three HCV NS3/4A protease genotypes were purchased from Anaspec. Unfortunately the enzyme activities of the three mutants V36A, T54A, and R155T were much less than that of the rest of the mutants and were insufficient for testing, therefore mutant studies were done with the five active mutants. Continuous kinetic assays were performed against all hit compounds in the same way as the wild-type NS3/4A. As a control, full-length NS3/4A (genotype 1b) was tested under the same conditions for direct comparison for each plate.

[6] = molecular target: T6, HCV replicon cell lysate sg 1b (NS3) (Hepatitis C virus genotype 1b, UniProt Q9WMX2); test: Whole cell lysate inhibition assay, HCV subgenomic replicon 1b; format: biochemical
T6 construct: host or cells: Huh7 Clone B cells stably replicating an HCV 1b subgenomic replicon; whole cell lysate
Method: (§2) Huh7-1 cells (also known as Huh7/scr cells) were obtained from F.V. Chisari (The Scripps Research Institute, La Jolla, CA). Clone B HCV sub-genotype 1b Huh7 cells were obtained from the NIH AIDS Research and Reference Reagent Program and have been previously described. Huh7 cells stably replicating the sub-genotype 2a HCV JFH-1 replicon were generated as previously described. All cells were cultured in complete Dulbecco’s modified Eagle’s medium (DMEM) supplemented with 10% fetal bovine serum, 100 units/mL penicillin, […] streptomycin, and 2 mM L-glutamine. HCV replicon cells were maintained in 500 µg/mL Geneticin (Invitrogen). For NS3 inhibition analysis, lysates from parental Huh7 cells and HCV replicon cells were harvested on ice in pre-chilled FRET cell lysis buffer (50 mM Tris-HCl, pH 7.5; 150 mM NaCl, 2 mM EDTA, 1.25% Triton X-100). Lysates were brought to room temperature and mixed 1∶1 with 2× FRET assay buffer (100 mM Tris-HCl, pH 7.5, 300 mM NaCl, 4 mM EDTA, 2.5% Triton X-100, 10 mM GSH, and 4 µM substrate). Fluorescence intensity was continuously monitored for 1 hour, and IC50 values were determined in the same way as biochemical assays.

[7] = molecular target: T7, HCV replicon cell lysate sg 2a (NS3) (Hepatitis C virus genotype 2a, UniProt Q99IB8); test: Whole cell lysate inhibition assay, HCV subgenomic replicon 2a; format: biochemical
T7 construct: expressed in transfected cells; host or cells: Huh7 cells stably replicating the JFH-1 subgenomic replicon; whole cell lysate
Method: as §2

replicon cells 1b = system: replicon cells 1b; set-up: method as in PMID 19457562, PMID 14578911; details: cited from earlier work
replicon cells 2a = system: replicon cells 2a; set-up: method as in PMID 19457562, PMID 14578911; details: cited from earlier work

CC1(C)CCc2cc(/C=C(\C#N)C(=O)c3cccc(C(F)(F)F)c3)ccc2O1 [Compound 6]
IC50 ([1]; read-out: IC50 Full-length NS3/4A): 7600 ± 600 nM
Kd (full-length NS3/4A [2]; SPR, 25°C, single rectangular hyperbolic fit): 8300 ± 1900 nM
SPR binding to NS3/4A, double referenced (full-length NS3/4A [2]; double referenced with blank and unrelated reference protein): specific binding
reversibility of inhibition [3]: reversible

COc1ccc2c(O[C@@H]3C[C@H]4C(=O)N[C@]5(C(=O)O)C[C@H]5/C=C\CCCCC[C@H](NC(=O)OC5CCCC5)C(=O)N4C3)cc(-c3csc(NC(C)C)n3)nc2c1 [BILN-2061, reference compound]
IC50 ([1]; IC50 Full-length NS3/4A): 4.6 ± 0.5 nM
mechanism of inhibition (full-length NS3/4A [4]): competitive inhibition
IC50 (NS3 protease domain): 1.7 ± 0.1 nM
IC50 [5]: 12 ± 1 nM
fold increase of IC50, whole cell lysate 1b vs biochemical assay ([6]; sg1b lysate compared to purified enzyme): ~8 fold
IC50 ([6]; whole cell lysate, subgenomic replicon 1b): 37 ± 10 nM
fold increase of IC50, whole cell lysate 2a vs biochemical assay ([7]; sg2a lysate compared to purified enzyme): ~19 fold
IC50 ([7]; whole cell lysate, subgenomic replicon 2a): 230 ± 30 nM
EC50 (replicon cells 1b): 3 nM
EC50 (replicon cells 2a): 67 nM
